Assay results from patent US10966994B2, “Thromboxane receptor antagonists” (ATXA THERAPEUTICS LIMITED, priority 2015, dated 2021).

Legend:
Format in all cases: cell-based
EP2 receptor = EP2 receptor (Homo sapiens, UniProt P43116); assay: Specificity testing, EP2 receptor signaling
EP4 receptor = EP4 receptor (Homo sapiens, UniProt P35408); assay: Specificity testing, EP4 receptor signaling
Method: (§1) There is no or minimal inhibition of the majority of the non-TP-mediated signaling observed in the presence of either NTP42 & NTP48. Where there is inhibition of signaling, it is observed at the 10 μM concentration only. […] Compared to NTP42, NTP48 has less of an effect on the signaling of the non-TP prostanoid receptors and therefore, may be considered more favorable in this context.

TPβ = target: T1, TPβ (Homo sapiens, UniProt P21731); assay: U46619-mediated calcium mobilization in HEK.TPβ cells; conditions: for IC50: 1 μM U46619, estimated IC50, mean ± S.E.M., read-out: IC50 values for Inhibition of U46619-Mediated [Ca2+]i Mobilisation, TPβ; for inhibition of U46619-mediated calcium mobilization, TPβ (in words): 1 μM U46619
T1 construct: expressed in transfected cells; host or cells: HEK 293 (HEK.TPβ, isolate EM #8)
T1 sequence (P21731 1-407 isoform P21731-2): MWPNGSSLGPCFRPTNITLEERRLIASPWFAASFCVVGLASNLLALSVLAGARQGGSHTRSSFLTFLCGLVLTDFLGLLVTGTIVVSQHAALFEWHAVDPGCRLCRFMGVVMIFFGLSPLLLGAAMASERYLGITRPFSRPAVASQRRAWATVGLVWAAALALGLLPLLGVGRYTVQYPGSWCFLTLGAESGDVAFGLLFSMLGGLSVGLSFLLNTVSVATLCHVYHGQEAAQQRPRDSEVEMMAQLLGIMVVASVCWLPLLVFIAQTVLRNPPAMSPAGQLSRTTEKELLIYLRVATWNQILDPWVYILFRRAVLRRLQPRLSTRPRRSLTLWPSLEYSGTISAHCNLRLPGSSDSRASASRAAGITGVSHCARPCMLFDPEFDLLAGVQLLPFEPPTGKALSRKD
Method: NTP42-NTP49, northern group variants of NTP4, were assessed through calcium mobilization assays using proprietary HEK 293 cells over-expressing the thromboxane (TX)A2 receptor, α (TPα) and β (TPβ) isoforms, referred to as HEK.TPα and HEK.TPβ cells, respectively. The initial screening involved dose-responses assays (concentrations used 0.0001 (TPβ only), 0.001, 0.1, 1 & 10 μM; (TPα and TPβ)) followed by more focused, full dose response assays (concentration range: 0.00001 to 10 μM) for determination of IC50 values where the effect of the compounds on calcium mobilized in response to the TXA2 mimetic U46619 (1 μM) were performed in side-by-side comparison with the key lead compounds TP20 and NTP4.
As stated, NTP42-NTP49 were screened through calcium mobilization assays using HEK.TPα and HEK.TPβ cells over-expressing the thromboxane (TX)A2 receptor, α (TPα) and β (TPβ) isoforms, respectively. The initial screening involved dose-response assays where the compounds, used at 0.0001 (TPβ only), 0.001, 0.1, 1 & 10 μM (TPα and TPβ), were assessed for their ability to inhibit the TXA2 mimetic U46619 (1 μM). The compounds were tested in side-by-side assays with the previously identified key lead compounds TP20 and NTP4.
(§2) HEK.TPβ (EM #8) cells, preloaded with Fluo-4, were incubated with the TP20, NTP4, NTP42, NTP43, NTP44, NTP45, NTP47, NTP48 & NTP49 where each antagonist was used at 0.0001, 0.001, 0.1, 1 & to 10 μM, as indicated, prior to stimulation with 1 μM U46619. Data is presented as the mean (±S.E.M.) percentage of the agonist-induced response in vehicle-treated cells (Percentage of Control; %) and represents data from at least 4 independent experiments were cells were treated in duplicate.
as §2, with “NTP43 and” for “NTP43, NTP44, NTP45, NTP47,”, “NTP48” for “NTP48 & NTP49”, “0.00001-10” for “0.0001, 0.001, 0.1, 1 & to 10”

EP3 receptor = target: T2, EP3 receptor (Homo sapiens, UniProt P43115); assay: Specificity testing, EP3 receptor signaling
T2 sequence (P43115 1-390): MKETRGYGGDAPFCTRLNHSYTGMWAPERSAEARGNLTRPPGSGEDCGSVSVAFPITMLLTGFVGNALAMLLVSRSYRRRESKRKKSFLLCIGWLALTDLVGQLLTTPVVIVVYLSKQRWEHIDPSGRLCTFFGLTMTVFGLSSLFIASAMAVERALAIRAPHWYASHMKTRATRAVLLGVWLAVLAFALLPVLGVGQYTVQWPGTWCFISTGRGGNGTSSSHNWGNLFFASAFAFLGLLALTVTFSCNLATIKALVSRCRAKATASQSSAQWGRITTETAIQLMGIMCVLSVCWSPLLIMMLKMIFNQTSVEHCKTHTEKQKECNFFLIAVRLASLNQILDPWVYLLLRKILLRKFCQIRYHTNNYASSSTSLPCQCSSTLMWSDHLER

EP1 receptor = target: T3, EP1 receptor (Homo sapiens, UniProt P34995); assay: Specificity testing, EP1 receptor signaling
T3 sequence (P34995 1-402): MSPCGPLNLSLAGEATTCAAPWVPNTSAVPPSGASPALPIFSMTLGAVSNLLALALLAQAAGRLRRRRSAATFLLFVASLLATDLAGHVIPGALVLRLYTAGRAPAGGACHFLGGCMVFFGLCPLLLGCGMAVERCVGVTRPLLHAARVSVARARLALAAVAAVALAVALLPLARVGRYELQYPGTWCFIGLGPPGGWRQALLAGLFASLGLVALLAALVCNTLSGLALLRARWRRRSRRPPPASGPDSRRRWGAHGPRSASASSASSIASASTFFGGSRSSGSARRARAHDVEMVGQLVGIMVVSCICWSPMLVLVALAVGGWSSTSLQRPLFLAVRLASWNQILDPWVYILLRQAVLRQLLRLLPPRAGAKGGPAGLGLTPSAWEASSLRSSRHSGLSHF
Method: as §1

human platelets = assay: U46619-mediated platelet aggregation ex vivo (PAP-8E aggregometer); conditions: for IC50: Platelet, human PRP, 10 min pre-incubation, 1 μM U46619, estimated IC50, read-out: IC50 values for Inhibition of U46619-Mediated Platelet Aggregation
Method: In order to evaluate NTP42-NTP49 in a second independent assay, the effect of the compounds on U46619-mediated platelet aggregation assays was examined. Clearly, from an efficacy point of view, this is an important assay and, physiologically, the more relevant with respect to the therapeutic target.
The compounds were tested in side-by-side assays with the previously identified key lead compound TP20 using the PAP-8E platelet aggregometer.
(§3) PRP was prepared from blood taken from healthy volunteers into syringes containing 3.8% sodium citrate and 10 μM indomethacin such that the final ratio of anticoagulant to blood was 1:9. Aliquots of PRP (300 μl) were pre-incubated for 10 min with the TP antagonists, TP20, NTP42, NTP43, NTP44, NTP45, NTP47, NTP48 and NTP49, where 2-fold serial dilutions from 0.25 μM was prepared for each, prior to stimulating platelets with 1 μM U46619, incubated at 37° C., with stirring. The results are presented as Percentage Aggregation (mean±S.E.M.), as determined by changes in light transmission over time using the PAP-8E Platelet Aggregation Profiler and represents data from 4 independent experiments (n=4).
as §3, with “TP20, NTP4,” for “TP20,”, “NTP42, NTP43” for “NTP42, NTP43, NTP44, NTP45, NTP47, NTP48”, “and NTP48,” for “and NTP49,”, “from 1” for “from 0.25”, “from at least 3” for “from 4”, “experiments (n≥3).” for “experiments (n=4).”

[1] = maximal inhibition, at 10 μM only

Sequence of EP2 receptor (P43116 whole entry): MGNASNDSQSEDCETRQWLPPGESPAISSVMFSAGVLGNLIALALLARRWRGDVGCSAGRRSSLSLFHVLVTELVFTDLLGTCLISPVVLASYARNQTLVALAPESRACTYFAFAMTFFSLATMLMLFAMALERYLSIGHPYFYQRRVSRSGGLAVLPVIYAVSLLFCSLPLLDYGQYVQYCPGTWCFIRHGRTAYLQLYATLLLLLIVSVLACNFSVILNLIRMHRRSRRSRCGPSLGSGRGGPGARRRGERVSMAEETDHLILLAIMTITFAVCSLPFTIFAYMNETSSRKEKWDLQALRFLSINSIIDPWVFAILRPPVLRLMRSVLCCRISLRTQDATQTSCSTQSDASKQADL
Sequence of EP4 receptor (P35408 whole entry): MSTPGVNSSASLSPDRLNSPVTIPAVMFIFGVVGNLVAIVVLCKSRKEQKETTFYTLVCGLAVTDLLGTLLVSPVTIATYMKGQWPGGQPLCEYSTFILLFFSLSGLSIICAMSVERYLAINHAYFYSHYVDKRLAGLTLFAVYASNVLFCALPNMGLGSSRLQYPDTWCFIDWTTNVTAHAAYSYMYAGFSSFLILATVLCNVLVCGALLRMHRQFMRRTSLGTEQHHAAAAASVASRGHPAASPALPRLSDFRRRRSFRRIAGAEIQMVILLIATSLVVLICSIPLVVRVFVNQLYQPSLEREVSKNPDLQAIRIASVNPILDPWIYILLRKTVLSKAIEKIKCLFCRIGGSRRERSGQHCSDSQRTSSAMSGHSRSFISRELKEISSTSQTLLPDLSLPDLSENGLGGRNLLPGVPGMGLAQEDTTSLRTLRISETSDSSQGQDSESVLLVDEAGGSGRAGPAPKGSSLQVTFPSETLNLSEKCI

Structure (SMILES)	effect on the EP2 receptor (EP2 receptor)	effect on the EP4 receptor (EP4 receptor)	IC50 (TPβ)	effect on the EP3 receptor (EP3 receptor)	effect on the EP1 receptor (EP1 receptor)	IC50 (human platelets)	inhibition of U46619-mediated calcium mobilization, TPβ (in words) (TPβ)	inhibition of U46619-mediated aggregation of human platelet ex vivo (in words) (human platelets; 1 μM U46619)	percentage reduction in responses, EP4 (EP4 receptor; [1])	percentage reduction in responses, EP1 (EP1 receptor; [1])
CC(C)(C)NC(=O)NS(=O)(=O)c1cc(C#N)ccc1Oc1cccc(-c2ccc(OC(F)(F)F)cc2)c1 [NTP43]	not to exhibit any effect	not to exhibit any effect	18.4 ± 1.63 nM	not to exhibit any effect	not to exhibit any effect	22 ± 2.03 nM				
COc1ccc(-c2cccc(Oc3ccc(C#N)cc3S(=O)(=O)NC(=O)NC(C)(C)C)c2)cc1 [NTP4, reference compound]	like TP20 and NTP4, neither NTP42, NTP43 nor NTP48 exhibited any effect	like TP20 and NTP4, neither NTP42, NTP43 nor NTP48 exhibited any effect		like TP20 and NTP4, neither NTP42, NTP43 nor NTP48 exhibited any effect	like TP20 and NTP4, neither NTP42, NTP43 nor NTP48 exhibited any effect	21.3 ± 1.01 nM	potently inhibited			
COc1ccc(-c2cccc(Oc3ccc([N+](=O)[O-])cc3S(=O)(=O)NC(=O)NC(C)(C)C)c2)cc1 [TP20, reference compound]	like TP20 and NTP4, neither NTP42, NTP43 nor NTP48 exhibited any effect	like TP20 and NTP4, neither NTP42, NTP43 nor NTP48 exhibited any effect		like TP20 and NTP4, neither NTP42, NTP43 nor NTP48 exhibited any effect	like TP20 and NTP4, neither NTP42, NTP43 nor NTP48 exhibited any effect	4.62 ± 0.72 nM	potently inhibited	potently inhibit		
CN(C)C(=O)c1ccc(-c2cccc(Oc3ccc(C#N)cc3S(=O)(=O)NC(=O)NC(C)(C)C)c2)cc1 [NTP48, 4-[3-[2-(tert-Butylcarbamoylsulfamoyl)-4-cyano-phenoxy]phenyl]-N,N-dimethyl-benzamide]	no effect	no effect	5.06 ± 1.5 nM	no effect	no effect	9.45 ± 1.38 nM				
CC(C)(C)NC(=O)NS(=O)(=O)c1cc(C#N)ccc1Oc1cccc(-c2ccc(OC(F)F)cc2)c1 [NTP42]	no effect	no effect	8.25 ± 0.73 nM	no effect	no effect	10.1 ± 1.07 nM			40%	~55%
